The source made the active and inactive calls.
How the values were obtained:
[1] = biological target: T1, Sentrin-specific protease 8 (Homo sapiens, UniProt Q96LD8); format: functional
T1 sequence (Q96LD8 whole entry): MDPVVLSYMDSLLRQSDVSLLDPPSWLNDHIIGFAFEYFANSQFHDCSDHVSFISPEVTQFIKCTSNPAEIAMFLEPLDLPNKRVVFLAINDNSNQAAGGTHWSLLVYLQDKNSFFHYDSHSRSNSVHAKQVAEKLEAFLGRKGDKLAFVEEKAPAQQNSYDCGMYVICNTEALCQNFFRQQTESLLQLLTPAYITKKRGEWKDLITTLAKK

[2] = biological target: T2, Sentrin-specific protease 7 (Homo sapiens, UniProt Q9BQF6); format: functional;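 further: Luminescence-based dose-response confirmation of ultra-high-throughput screening hits, measuring inhibition of SENP7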
T2 sequence (Q9BQF6 whole entry): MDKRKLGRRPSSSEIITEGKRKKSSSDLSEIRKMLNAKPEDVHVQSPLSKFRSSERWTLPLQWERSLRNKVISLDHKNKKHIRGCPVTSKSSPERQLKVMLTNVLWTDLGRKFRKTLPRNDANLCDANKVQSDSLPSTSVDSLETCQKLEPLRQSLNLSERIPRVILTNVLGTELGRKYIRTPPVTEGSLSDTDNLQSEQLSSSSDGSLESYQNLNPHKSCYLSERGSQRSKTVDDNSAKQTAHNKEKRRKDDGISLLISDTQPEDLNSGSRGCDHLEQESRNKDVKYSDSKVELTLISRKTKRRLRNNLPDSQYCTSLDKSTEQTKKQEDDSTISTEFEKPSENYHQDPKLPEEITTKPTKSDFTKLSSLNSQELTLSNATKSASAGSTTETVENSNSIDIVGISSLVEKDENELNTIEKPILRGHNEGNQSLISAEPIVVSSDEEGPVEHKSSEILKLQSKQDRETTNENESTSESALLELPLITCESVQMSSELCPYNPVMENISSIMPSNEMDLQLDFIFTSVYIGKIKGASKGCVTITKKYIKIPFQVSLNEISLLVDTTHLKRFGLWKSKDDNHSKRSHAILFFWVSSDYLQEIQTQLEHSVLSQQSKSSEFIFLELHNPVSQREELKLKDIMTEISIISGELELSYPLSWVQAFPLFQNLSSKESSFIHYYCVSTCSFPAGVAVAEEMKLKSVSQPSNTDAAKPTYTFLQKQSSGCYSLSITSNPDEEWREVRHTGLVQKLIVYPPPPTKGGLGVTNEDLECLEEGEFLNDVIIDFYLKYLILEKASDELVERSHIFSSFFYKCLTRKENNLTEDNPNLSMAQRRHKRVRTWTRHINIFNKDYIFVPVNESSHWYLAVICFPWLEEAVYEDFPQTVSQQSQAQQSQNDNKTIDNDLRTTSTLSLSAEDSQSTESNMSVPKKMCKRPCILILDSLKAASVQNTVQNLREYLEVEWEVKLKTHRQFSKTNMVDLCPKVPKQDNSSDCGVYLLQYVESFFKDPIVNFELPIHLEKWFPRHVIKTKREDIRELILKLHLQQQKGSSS

Aurora kinase B = Aurora kinase B (Homo sapiens, UniProt Q96GD4); format: functional
Sequence of Aurora kinase B (Q96GD4 whole entry): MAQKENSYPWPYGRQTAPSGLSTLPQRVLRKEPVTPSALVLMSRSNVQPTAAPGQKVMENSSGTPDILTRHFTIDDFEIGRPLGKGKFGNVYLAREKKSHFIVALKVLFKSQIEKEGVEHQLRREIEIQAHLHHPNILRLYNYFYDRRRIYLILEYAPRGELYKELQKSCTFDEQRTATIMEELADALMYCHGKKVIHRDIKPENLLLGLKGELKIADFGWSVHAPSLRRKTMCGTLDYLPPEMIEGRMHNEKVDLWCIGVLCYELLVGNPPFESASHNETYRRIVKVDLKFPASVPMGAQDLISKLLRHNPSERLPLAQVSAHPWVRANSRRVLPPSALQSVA

[3] = biological target: Serine/threonine-protein kinase PAK 4 (Homo sapiens, UniProt O96013); format: functional;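 further: value obtained within a kinome profiling panel in which PAK4 was one of the panel members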
Sequence of Serine/threonine-protein kinase PAK 4 (O96013 whole entry): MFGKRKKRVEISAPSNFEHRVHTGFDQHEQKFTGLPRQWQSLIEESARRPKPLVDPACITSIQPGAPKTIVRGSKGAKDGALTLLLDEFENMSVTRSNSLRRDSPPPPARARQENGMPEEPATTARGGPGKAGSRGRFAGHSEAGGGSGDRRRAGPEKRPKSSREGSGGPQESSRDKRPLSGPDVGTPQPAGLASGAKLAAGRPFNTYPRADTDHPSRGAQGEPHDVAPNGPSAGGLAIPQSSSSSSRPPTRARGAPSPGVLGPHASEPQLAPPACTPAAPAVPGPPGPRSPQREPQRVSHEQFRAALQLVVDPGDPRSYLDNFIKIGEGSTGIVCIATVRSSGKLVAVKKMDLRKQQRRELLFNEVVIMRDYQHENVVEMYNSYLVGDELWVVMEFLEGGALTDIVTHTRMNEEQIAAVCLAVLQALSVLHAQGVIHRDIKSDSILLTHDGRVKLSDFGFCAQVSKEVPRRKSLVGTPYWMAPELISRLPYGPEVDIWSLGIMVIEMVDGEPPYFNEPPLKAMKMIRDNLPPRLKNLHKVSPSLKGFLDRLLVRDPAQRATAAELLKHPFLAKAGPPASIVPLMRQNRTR

[4] = biological target: Dual specificity mitogen-activated protein kinase kinase 1 (Homo sapiens, UniProt Q02750); assay: Navigating the Kinome. Panel member name: MAP2K1; format: functional
Sequence of Dual specificity mitogen-activated protein kinase kinase 1 (Q02750 whole entry): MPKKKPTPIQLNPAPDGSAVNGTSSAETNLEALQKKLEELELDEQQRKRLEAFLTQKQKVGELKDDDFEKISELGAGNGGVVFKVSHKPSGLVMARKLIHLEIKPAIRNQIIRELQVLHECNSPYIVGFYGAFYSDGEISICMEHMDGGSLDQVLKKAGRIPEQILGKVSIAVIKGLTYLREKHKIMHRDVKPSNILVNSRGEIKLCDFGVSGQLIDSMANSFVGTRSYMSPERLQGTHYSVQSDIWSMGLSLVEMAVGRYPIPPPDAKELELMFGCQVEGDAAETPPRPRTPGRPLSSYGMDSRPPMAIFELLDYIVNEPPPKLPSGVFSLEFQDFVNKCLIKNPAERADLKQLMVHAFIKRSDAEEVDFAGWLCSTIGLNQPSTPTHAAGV

[5] = biological target: Dual specificity mitogen-activated protein kinase kinase 2 (Homo sapiens, UniProt P36507); assay: Navigating the Kinome. Panel member name: MAP2K2; format: functional
Sequence of Dual specificity mitogen-activated protein kinase kinase 2 (P36507 whole entry): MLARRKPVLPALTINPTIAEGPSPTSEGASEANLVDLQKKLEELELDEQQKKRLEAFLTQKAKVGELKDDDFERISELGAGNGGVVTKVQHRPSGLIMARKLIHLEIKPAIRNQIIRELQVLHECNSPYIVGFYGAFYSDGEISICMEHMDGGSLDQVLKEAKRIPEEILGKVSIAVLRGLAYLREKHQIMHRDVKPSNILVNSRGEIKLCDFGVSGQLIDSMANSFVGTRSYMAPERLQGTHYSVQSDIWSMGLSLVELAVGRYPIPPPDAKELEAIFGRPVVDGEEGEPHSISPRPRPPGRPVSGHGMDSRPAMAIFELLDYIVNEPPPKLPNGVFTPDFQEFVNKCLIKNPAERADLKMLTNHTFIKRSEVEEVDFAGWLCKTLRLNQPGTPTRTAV

[6] = biological target: Glycogen synthase kinase-3 beta (Homo sapiens, UniProt P49841); format: functional;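 further: value comes from a broad kinome profiling panel, with GSK3B as the panel member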
[7] = biological target: Calcium/calmodulin-dependent protein kinase type II subunit alpha (Homo sapiens, UniProt Q9UQM7); assay: Navigating the Kinome. Panel member name: CAMK2A; format: functional
Sequence of Calcium/calmodulin-dependent protein kinase type II subunit alpha (Q9UQM7 whole entry): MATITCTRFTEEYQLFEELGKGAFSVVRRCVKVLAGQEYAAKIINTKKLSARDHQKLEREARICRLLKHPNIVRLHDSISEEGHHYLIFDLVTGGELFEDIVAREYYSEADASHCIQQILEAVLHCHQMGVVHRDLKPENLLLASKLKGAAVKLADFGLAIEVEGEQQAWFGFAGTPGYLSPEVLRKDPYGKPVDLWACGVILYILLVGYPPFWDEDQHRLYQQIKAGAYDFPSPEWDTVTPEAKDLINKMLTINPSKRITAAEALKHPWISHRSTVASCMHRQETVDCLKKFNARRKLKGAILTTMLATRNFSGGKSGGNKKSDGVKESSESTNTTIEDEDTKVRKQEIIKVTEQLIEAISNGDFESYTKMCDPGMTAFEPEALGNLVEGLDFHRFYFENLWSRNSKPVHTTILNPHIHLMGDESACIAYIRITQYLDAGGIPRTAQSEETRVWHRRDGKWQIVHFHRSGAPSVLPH

Focal adhesion kinase 1 = Focal adhesion kinase 1 (Homo sapiens, UniProt Q05397); format: functional;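 further: measured as one member of a kinome panel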
Sequence of Focal adhesion kinase 1 (Q05397 whole entry): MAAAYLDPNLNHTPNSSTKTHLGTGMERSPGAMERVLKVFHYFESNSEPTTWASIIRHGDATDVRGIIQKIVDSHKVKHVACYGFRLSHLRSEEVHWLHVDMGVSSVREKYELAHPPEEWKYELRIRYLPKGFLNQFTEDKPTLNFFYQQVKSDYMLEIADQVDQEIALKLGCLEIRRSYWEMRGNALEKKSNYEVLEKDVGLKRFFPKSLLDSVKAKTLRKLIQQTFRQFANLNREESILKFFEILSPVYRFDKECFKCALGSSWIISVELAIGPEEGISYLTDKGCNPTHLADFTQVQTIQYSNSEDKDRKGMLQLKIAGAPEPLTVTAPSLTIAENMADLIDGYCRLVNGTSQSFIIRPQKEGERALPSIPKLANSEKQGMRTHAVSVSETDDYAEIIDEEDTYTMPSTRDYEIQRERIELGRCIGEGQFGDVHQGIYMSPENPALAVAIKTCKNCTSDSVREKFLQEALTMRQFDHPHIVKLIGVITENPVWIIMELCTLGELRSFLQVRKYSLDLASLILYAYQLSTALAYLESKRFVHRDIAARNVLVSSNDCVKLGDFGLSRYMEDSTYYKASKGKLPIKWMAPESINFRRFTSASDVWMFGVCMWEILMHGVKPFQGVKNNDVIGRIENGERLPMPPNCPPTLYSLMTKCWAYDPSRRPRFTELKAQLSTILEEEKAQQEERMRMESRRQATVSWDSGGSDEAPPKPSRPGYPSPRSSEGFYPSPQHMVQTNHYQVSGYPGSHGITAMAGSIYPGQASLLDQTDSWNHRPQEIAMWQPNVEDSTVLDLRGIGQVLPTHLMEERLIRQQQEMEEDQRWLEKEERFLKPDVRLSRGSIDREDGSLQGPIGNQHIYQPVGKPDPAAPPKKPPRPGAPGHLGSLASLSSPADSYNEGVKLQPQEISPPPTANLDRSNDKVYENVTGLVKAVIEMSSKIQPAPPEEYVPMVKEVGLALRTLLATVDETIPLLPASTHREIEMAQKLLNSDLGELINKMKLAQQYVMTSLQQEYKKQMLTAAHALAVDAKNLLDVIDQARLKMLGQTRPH

[8] = biological target: Glycogen synthase kinase-3 alpha (Homo sapiens, UniProt P49840); format: functional;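 further: GSK3A result taken from a broad kinome-wide kinase panel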
Sequence of Glycogen synthase kinase-3 alpha (P49840 whole entry): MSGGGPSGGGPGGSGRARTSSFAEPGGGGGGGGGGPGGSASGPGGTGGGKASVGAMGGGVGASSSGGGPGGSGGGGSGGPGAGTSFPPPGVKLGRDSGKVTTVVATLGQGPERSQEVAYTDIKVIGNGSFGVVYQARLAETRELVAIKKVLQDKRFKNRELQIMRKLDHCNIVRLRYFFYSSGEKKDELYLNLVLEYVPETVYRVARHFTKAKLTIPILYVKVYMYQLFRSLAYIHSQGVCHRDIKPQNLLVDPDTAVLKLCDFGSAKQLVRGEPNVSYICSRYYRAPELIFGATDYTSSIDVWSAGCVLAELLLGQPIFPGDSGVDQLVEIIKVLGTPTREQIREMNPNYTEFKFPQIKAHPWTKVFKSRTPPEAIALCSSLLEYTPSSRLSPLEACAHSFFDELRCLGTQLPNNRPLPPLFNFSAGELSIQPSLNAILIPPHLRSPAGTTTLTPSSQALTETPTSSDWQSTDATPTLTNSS

Genome polyprotein = Genome polyprotein (dengue virus type 2, UniProt P29990); assay: flavivirus cap methylation enzyme inhibition – biochemical, confirmation dose response, primary screen (AID 588689); format: functional
Sequence of Genome polyprotein (P29990 2492-3391 limits assumed): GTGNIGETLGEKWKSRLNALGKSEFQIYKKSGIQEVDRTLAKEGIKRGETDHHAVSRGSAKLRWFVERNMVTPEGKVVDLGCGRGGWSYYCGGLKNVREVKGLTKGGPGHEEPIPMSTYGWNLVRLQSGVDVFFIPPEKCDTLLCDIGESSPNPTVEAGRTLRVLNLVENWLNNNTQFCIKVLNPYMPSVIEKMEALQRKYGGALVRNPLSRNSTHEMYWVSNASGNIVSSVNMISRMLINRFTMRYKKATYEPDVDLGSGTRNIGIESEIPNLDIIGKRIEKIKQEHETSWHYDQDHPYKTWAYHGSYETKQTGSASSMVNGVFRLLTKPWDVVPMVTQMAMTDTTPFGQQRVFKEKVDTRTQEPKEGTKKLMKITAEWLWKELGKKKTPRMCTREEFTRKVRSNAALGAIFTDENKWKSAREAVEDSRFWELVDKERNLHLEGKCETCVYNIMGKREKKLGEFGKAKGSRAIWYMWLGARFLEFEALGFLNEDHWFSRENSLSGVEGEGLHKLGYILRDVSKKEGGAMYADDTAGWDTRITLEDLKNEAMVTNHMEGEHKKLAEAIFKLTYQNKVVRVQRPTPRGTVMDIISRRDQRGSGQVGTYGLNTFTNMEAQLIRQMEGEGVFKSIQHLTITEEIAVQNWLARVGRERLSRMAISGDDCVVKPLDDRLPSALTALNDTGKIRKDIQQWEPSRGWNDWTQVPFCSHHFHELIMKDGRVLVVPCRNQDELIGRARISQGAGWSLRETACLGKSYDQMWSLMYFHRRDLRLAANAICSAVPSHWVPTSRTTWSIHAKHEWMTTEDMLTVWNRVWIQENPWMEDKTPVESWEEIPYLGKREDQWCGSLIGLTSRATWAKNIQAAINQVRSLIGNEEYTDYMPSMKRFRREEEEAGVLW

Insulin-degrading enzyme = biological target: T3, Insulin-degrading enzyme (Homo sapiens, UniProt P14735); assay: cellular IDE activation of Abeta substrate cleavage – fluorescence polarization, HEK cells, dose response (AID 588439); format: functional, cell-based
T3 sequence (P14735 whole entry): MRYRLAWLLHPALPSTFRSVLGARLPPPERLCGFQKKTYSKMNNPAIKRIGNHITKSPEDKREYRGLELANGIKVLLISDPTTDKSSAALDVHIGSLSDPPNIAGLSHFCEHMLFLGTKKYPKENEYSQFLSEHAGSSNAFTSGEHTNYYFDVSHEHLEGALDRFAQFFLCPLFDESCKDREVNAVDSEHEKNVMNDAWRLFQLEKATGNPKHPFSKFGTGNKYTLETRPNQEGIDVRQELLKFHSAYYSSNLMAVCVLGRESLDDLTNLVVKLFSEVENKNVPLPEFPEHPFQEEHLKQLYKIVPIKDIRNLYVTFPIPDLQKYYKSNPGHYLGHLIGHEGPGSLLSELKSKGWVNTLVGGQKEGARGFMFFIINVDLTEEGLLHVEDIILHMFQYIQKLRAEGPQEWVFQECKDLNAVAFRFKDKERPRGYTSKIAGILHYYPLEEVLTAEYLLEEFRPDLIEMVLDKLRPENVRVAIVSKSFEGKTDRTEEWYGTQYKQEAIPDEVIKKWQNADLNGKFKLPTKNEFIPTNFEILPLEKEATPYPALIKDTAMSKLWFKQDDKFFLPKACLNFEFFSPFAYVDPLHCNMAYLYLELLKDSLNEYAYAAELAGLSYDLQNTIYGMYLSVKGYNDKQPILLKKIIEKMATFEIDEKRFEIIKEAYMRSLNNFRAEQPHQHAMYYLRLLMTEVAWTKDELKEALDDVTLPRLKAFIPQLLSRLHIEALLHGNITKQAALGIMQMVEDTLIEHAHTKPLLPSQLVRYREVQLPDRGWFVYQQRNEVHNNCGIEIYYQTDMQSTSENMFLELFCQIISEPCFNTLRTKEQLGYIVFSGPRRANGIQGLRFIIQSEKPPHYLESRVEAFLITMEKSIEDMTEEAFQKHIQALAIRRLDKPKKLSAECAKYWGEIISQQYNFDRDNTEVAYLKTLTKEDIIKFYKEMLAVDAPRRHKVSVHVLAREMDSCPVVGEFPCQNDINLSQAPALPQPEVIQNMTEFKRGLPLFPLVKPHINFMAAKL

[9] = NIH-3T3 fibroblast cytotoxicity, dose response, cytotoxicity control, cell-based, fluorescence, Alamar Blue, secondary assay (AID 2327); format: functional;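 further: NIH-3T3 mouse fibroblasts cultured with fluconazole at 8 µg/mL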
[10] = biological target: Dual specificity protein phosphatase 3 (Homo sapiens, UniProt P51452); assay: VHR1 phosphatase inhibitors, primary screen, biochemical, absorbance, uHTS (AID 1654)
Sequence of Dual specificity protein phosphatase 3 (P51452 whole entry): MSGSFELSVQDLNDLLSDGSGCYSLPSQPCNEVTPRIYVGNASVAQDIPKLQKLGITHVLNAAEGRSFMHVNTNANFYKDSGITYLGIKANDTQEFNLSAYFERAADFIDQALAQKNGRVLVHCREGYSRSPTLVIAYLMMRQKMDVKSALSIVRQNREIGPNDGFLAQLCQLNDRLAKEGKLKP

With `O=C(NNc1cc(N2CCCC2)nc(N2CCCC2)n1)c1ccc([N+](=O)[O-])cc1` the IC50 [1] was 155 nM (active) and the IC50 [2] was 2550 nM (active).

In the case of `O=C(Cc1cccs1)Nc1nc2ccccc2s1`, the Ki (Aurora kinase B) is reported as 1000 nM (active), the Ki [3] is reported as > 5010 nM (inactive) and the Ki [4] is reported as 2000 nM (active). The Ki [5] was 794 nM (active), the Ki [6] was 501 nM (active) and the Ki [7] was 3160 nM (active). The Ki (Focal adhesion kinase 1) was > 6310 nM (inactive) and the Ki [8] was > 3980 nM (inactive).

With `O=S(=O)(O)c1cccc2c(N=Nc3ccc(O)c4ncccc34)cccc12` the IC50 (Genome polyprotein) was 34800 nM (active), the EC50 (Insulin-degrading enzyme) was 8800 nM (active) and the EC50 [9] was > 160000 nM (inactive). For the same molecule, the IC50 [10] was 2280 nM (active).
